Data reported in BindingDB's records for doi:10.1021/bi035098j (Merck Research Laboratories, 2003).

Key:
[1] = target: T1, Tyrosine-protein phosphatase non-receptor type 2 (Homo sapiens, UniProt P17706); experiment: PTP1B and TCPTP Inhibition Assay; conditions: pH 6.3; 22 °C
T1 sequence (P17706 whole entry): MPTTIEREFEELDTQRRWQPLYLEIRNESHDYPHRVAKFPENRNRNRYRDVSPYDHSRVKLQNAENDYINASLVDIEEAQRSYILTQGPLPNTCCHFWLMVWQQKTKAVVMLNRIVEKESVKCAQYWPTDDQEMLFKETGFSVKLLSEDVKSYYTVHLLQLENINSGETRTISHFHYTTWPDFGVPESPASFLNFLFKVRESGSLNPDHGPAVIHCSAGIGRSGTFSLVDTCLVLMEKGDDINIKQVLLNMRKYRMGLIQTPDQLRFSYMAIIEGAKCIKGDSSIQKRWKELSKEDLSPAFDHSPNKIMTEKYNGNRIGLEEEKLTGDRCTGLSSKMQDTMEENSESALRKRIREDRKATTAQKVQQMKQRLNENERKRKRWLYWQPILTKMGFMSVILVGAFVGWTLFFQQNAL

[2] = target: T2, Tyrosine-protein phosphatase non-receptor type 1 [1-298] (Homo sapiens, UniProt P18031); experiment: PTP1B and TCPTP Inhibition Assay; conditions: pH 6.3; 22 °C
T2 construct: 1-298
T2 sequence (P18031 whole entry): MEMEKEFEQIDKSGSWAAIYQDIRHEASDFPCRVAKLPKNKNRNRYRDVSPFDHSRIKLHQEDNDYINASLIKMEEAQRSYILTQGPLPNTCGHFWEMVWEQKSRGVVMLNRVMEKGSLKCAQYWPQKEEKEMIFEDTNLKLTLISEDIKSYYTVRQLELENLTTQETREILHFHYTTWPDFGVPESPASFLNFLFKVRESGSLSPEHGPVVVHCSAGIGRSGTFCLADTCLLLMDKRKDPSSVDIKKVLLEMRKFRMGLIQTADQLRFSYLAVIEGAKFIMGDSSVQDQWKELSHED

| SMILES | IC50 [1] [nM] | IC50 [2] [nM] |
| --- | --- | --- |
| CC(C)CC(O)c1ccc2cc(-c3ccc(CC(Cc4ccc(C(F)(F)P(=O)(O)O)cc4)(c4ccccc4)n4nnc5ccccc54)cc3)cc(P(=O)(O)O)c2n1 (centres undefined) [6-{4-[2-(1H-1,2,3-benzotriazol-1-yl)-3-{4-[difluoro(phosphono)methyl]phenyl}-2-phenylpropyl]phenyl}-2-(1-hydroxy-3-methylbutyl)quinoline-8-phosphonic acid] | 17 | 6 |
| O=P(O)(O)C(F)(F)c1ccc(CC(Cc2ccc(C(F)(F)P(=O)(O)O)cc2)(c2ccccc2)n2nnc3ccccc32)cc1 | 11 |  |
| O=P(O)(O)C(F)(F)c1ccc(CC(Cc2ccc(-c3ccccc3)cc2)(c2ccccc2)n2nnc3ccccc32)cc1 (centres undefined) [({4-[2-(1H-1,2,3-benzotriazol-1-yl)-2-phenyl-3-(4-phenylphenyl)propyl]phenyl}difluoromethyl)phosphonic acid] | 24 | 38 |
| COCOC(CC(C)C)c1ccc2cc(-c3ccc(CC(Cc4ccc(C(F)(F)P(=O)(O)O)cc4)(c4ccccc4)n4nnc5ccccc54)cc3)cc(P(=O)(O)O)c2n1 (centres undefined) [6-{4-[2-(1H-1,2,3-benzotriazol-1-yl)-3-{4-[difluoro(phosphono)methyl]phenyl}-2-phenylpropyl]phenyl}-2-[1-(methoxymethoxy)-3-methylbutyl]quinoline-8-phosphonic acid] | 21 | 11 |
| COc1ccc(-c2ccc(CC(Cc3ccc(C(F)(F)P(=O)(O)O)cc3)(c3ccccc3)n3nnc4ccccc43)cc2)cc1P(=O)(O)O (centres undefined) [5-{4-[2-(1H-1,2,3-benzotriazol-1-yl)-3-{4-[difluoro(phosphono)methyl]phenyl}-2-phenylpropyl]phenyl}-2-methoxybenzene-1-phosphonic acid] | 31 | 10 |
| Cc1ccc2cc(-c3ccc(CC(Cc4ccc(C(F)(F)P(=O)(O)O)cc4)(c4ccccc4)n4nnc5ccccc54)cc3)cc(P(=O)(O)O)c2n1 (centres undefined) | 20 |  |
| COC(CC(C)C)c1ccc2cc(-c3ccc(CC(Cc4ccc(C(F)(F)P(=O)(O)O)cc4)(c4ccccc4)n4nnc5ccccc54)cc3)cc(P(=O)(O)O)c2n1 (centres undefined) [6-{4-[2-(1H-1,2,3-benzotriazol-1-yl)-3-{4-[difluoro(phosphono)methyl]phenyl}-2-phenylpropyl]phenyl}-2-(1-methoxy-3-methylbutyl)quinoline-8-phosphonic acid] | 36 |  |
| O=P(O)(O)C(F)(F)c1ccc(C[C@H](c2ccccc2)n2nnc3ccccc32)cc1 [({4-[(2R)-2-(1H-1,2,3-benzotriazol-1-yl)-2-phenylethyl]phenyl}difluoromethyl)phosphonic acid] |  | 8040 |
| CC(C)CCOc1ccc(-c2ccc(CC(Cc3ccc(C(F)(F)P(=O)(O)O)cc3)(c3ccccc3)n3nnc4ccccc43)cc2)cc1P(=O)(O)O (centres undefined) [5-{4-[2-(1H-1,2,3-benzotriazol-1-yl)-3-{4-[difluoro(phosphono)methyl]phenyl}-2-phenylpropyl]phenyl}-2-(3-methylbutoxy)benzene-1-phosphonic acid] | 20 | 6 |
